Experimental data reported in PubChem BioAssay AID1259407 (Chemical Carcinogenesis Research Information System (CCRIS), 2018).
Active and inactive are the calls of the source. No rule for the calls is given here.

Test system: CCRIS mutagenicity, Ames/micronucleus/aberration tests
Assay: CCRIS mutagenicity studies
[1] = Test System: AMES SALMONELLA TYPHIMURIUM, Strain/Indicator: TA98, Metabolic Activation: NONE, Method: STANDARD PLATE
[2] = Test System: AMES SALMONELLA TYPHIMURIUM, Strain/Indicator: TA100, Metabolic Activation: NONE, Method: STANDARD PLATE
[3] = Test System: AMES SALMONELLA TYPHIMURIUM, Strain/Indicator: TA97, Metabolic Activation: NONE, Method: STANDARD PLATE

SMILES: CN(N)c1ccn([C@@H]2O[C@H](CO)[C@@H](O)[C@H]2O)c(=O)n1
- mutagenic call (Test System: CHINESE HAMSTER V-79, Strain/Indicator: V-79/6-THIOGUANINE, Metabolic Activation: NONE, Method: REPLATING): inactive; negative

SMILES: O=[N+]([O-])c1c(O)ccc2ccccc12
- mutagenic call (Test System: AMES SALMONELLA TYPHIMURIUM, Strain/Indicator: TA98, Metabolic Activation: NONE, Method: PREINCUBATION): active; positive

SMILES: O=[N+]([O-])C(Cl)Br (stereo not drawn)
- mutagenic call (Test System: Ames Salmonella typhimurium, Strain/Indicator: RSJ100, Metabolic Activation: None, Method: Standard plate): active; positive (weak)
- mutagenic call (Test System: Ames Salmonella typhimurium, Strain/Indicator: RSJ100, Metabolic Activation: Rat, Liver, S-9, Aroclor, Method: Standard plate): inactive; negative
- mutagenic call (Test System: Ames Salmonella typhimurium, Strain/Indicator: TA98, Metabolic Activation: None, Method: Standard plate): active; positive (weak)
- mutagenic call (Test System: Ames Salmonella typhimurium, Strain/Indicator: TA98, Metabolic Activation: Rat, Liver, S-9, Aroclor, Method: Standard plate): inactive; negative
- mutagenic call (Test System: Ames Salmonella typhimurium, Strain/Indicator: TA100, Metabolic Activation: None, Method: Standard plate): inactive; negative
- mutagenic call (Test System: Ames Salmonella typhimurium, Strain/Indicator: TA100, Metabolic Activation: Rat, Liver, S-9, Aroclor, Method: Standard plate): active; positive
- mutagenic call (Test System: Ames Salmonella typhimurium, Strain/Indicator: TA104, Metabolic Activation: None, Method: Standard plate): inactive; negative
- mutagenic call (Test System: Ames Salmonella typhimurium, Strain/Indicator: TA104, Metabolic Activation: Rat, Liver, S-9, Aroclor, Method: Standard plate): inactive; negative
- mutagenic call (Test System: Ames Salmonella typhimurium, Strain/Indicator: TPT100, Metabolic Activation: None, Method: Standard plate): inactive; negative

SMILES: Cc1c2c(c(C)c3c1ccc1ccccc13)C=C[C@@H](O)[C@@H]2O
- mutagenic call (Test System: CHINESE HAMSTER V-79, Strain/Indicator: V-79/OUABAIN, Metabolic Activation: CELL-MEDIATED, Method: STANDARD PLATE): active; positive

SMILES: BrCc1c2ccccc2cc2c1ccc1ccccc12
- mutagenic call [1]: active; positive
- mutagenic call [2]: active; positive
- mutagenic call (Test System: CHINESE HAMSTER V-79, Strain/Indicator: V-79/8-AZAGUANINE, Metabolic Activation: NONE, Method: STANDARD PLATE): active; positive
- mutagenic call (Test System: E. COLI, Strain/Indicator: WP2, Metabolic Activation: NONE, Method: FLUCTUATION): active; positive
- mutagenic call (Test System: E. COLI, Strain/Indicator: WP2 UVRA, Metabolic Activation: NONE, Method: FLUCTUATION): active; positive
- mutagenic call (Test System: UDS HUMAN CELLS, Strain/Indicator: THY INCORP (NON-S-PHASE), Metabolic Activation: NONE, Method: LIQUID SCINTILLATION COUNTING): active; positive
- mutagenic call (Test System: UDS HUMAN FIBROBLASTS, Strain/Indicator: THY INCORP (NON-S-PHASE), Metabolic Activation: NONE, Method: AUTORADIOGRAPHY): active; positive
- mutagenic call (Test System: UDS RODENT CELLS, Strain/Indicator: THY INCORP (NON-S-PHASE), Metabolic Activation: NONE, Method: LIQUID SCINTILLATION COUNTING): active; positive

SMILES: CC(C)(c1ccc(OCC2CO2)cc1)c1ccc(OCC2CO2)cc1 (stereo not drawn)
- mutagenic call (Test System: AMES SALMONELLA TYPHIMURIUM, Strain/Indicator: TA100, Metabolic Activation: HAMSTER, LIVER, S-9, AROCLOR 1254 (10%), Method: PREINCUBATION): active; positive
- mutagenic call (Test System: AMES SALMONELLA TYPHIMURIUM, Strain/Indicator: TA100, Metabolic Activation: NONE, Method: PREINCUBATION): active; positive
- mutagenic call [2]: active; positive
- mutagenic call (Test System: AMES SALMONELLA TYPHIMURIUM, Strain/Indicator: TA100, Metabolic Activation: RAT LIVER S-9, PHENOBARBITAL/METHYLCHOLANTHRENE (2 OR 10%), Method: STANDARD PLATE): active; positive
- mutagenic call (Test System: AMES SALMONELLA TYPHIMURIUM, Strain/Indicator: TA100, Metabolic Activation: RAT LIVER S-9, PHENOBARBITAL/METHYLCHOLANTHRENE (4%), Method: STANDARD PLATE): active; positive
- mutagenic call (Test System: AMES SALMONELLA TYPHIMURIUM, Strain/Indicator: TA100, Metabolic Activation: RAT, LIVER, S-9, AROCLOR 1254 (10%), Method: PREINCUBATION): active; positive
- mutagenic call (Test System: AMES SALMONELLA TYPHIMURIUM, Strain/Indicator: TA1535, Metabolic Activation: HAMSTER, LIVER, S-9, AROCLOR 1254 (10%), Method: PREINCUBATION): active; positive
- mutagenic call (Test System: AMES SALMONELLA TYPHIMURIUM, Strain/Indicator: TA1535, Metabolic Activation: NONE, Method: PREINCUBATION): active; positive
- mutagenic call (Test System: AMES SALMONELLA TYPHIMURIUM, Strain/Indicator: TA1535, Metabolic Activation: NONE, Method: STANDARD PLATE): inactive; negative
- mutagenic call (Test System: AMES SALMONELLA TYPHIMURIUM, Strain/Indicator: TA1535, Metabolic Activation: RAT LIVER S-9, PHENOBARBITAL/METHYLCHOLANTHRENE (4, 10 OR 20%), Method: STANDARD PLATE): active; positive
- mutagenic call (Test System: AMES SALMONELLA TYPHIMURIUM, Strain/Indicator: TA1535, Metabolic Activation: RAT, LIVER, S-9, AROCLOR 1254 (10%), Method: PREINCUBATION): active; positive
- mutagenic call (Test System: E. coli, Strain/Indicator: IC3327, Metabolic Activation: None, Method: Standard Plate): active; positive
- mutagenic call (Test System: E. coli, Strain/Indicator: IC3327, Metabolic Activation: Rat, Liver, S-9, Phenobarbital-methylcholanthrene mix (4%) + 4 mM NADP, Method: Standard Plate): active; positive
- mutagenic call (Test System: E. coli, Strain/Indicator: IC3327, Metabolic Activation: Rat, Liver, S-9, Phenobarbital-methylcholanthrene mix (4%), Method: Standard Plate): active; positive
- mutagenic call (Test System: E. coli, Strain/Indicator: WP2 UVRA, Metabolic Activation: None, Method: Standard Plate): active; positive
- mutagenic call (Test System: E. coli, Strain/Indicator: WP2 UVRA, Metabolic Activation: Rat, Liver, S-9, Phenobarbital-methylcholanthrene mix (4%) + 4 mM NADP, Method: Standard Plate): inactive; negative (authors report as positive based on slope but revertants <2x backgroun
- mutagenic call (Test System: E. coli, Strain/Indicator: WP2 UVRA, Metabolic Activation: Rat, Liver, S-9, Phenobarbital-methylcholanthrene mix (4%), Method: Standard Plate): active; positive

SMILES: CC1(C)[C@H](C=C(Cl)Cl)[C@H]1C(=O)OCc1cccc(Oc2ccccc2)c1
- mutagenic call [3]: inactive; negative
- mutagenic call (Test System: AMES SALMONELLA TYPHIMURIUM, Strain/Indicator: TA97, Metabolic Activation: RAT, LIVER, S-9, PHENOBARBITONE, Method: STANDARD PLATE): inactive; negative
- mutagenic call [1]: inactive; negative
- mutagenic call (Test System: AMES SALMONELLA TYPHIMURIUM, Strain/Indicator: TA98, Metabolic Activation: RAT, LIVER, S-9, PHENOBARBITONE, Method: STANDARD PLATE): inactive; negative
- mutagenic call [2]: inactive; negative
- mutagenic call (Test System: AMES SALMONELLA TYPHIMURIUM, Strain/Indicator: TA100, Metabolic Activation: RAT, LIVER, S-9, PHENOBARBITONE, Method: STANDARD PLATE): inactive; negative
- mutagenic call (Test System: AMES SALMONELLA TYPHIMURIUM, Strain/Indicator: TA104, Metabolic Activation: NONE, Method: STANDARD PLATE): inactive; negative
- mutagenic call (Test System: AMES SALMONELLA TYPHIMURIUM, Strain/Indicator: TA104, Metabolic Activation: RAT, LIVER, S-9, PHENOBARBITONE, Method: STANDARD PLATE): inactive; negative

SMILES: CCOC(=O)Nc1ccc(SC[C@@H]2CO[C@@](Cn3ccnc3)(c3ccc(Cl)cc3Cl)O2)cc1
- mutagenic call (End Point: IN VIVO MICRONUCLEUS, Test System: BLOOD ERYTHROCYTES, Species: MOUSE, Strain/Sex: CD-1/MALE, Route: ORAL): active; positive (at 48 and 72 hr at higher dose)

SMILES: CCC(CCCC(=O)O)COC(=O)c1ccccc1C(=O)O (stereo not drawn)
- mutagenic call [3]: inactive; negative
- mutagenic call (Test System: AMES SALMONELLA TYPHIMURIUM, Strain/Indicator: TA97, Metabolic Activation: RAT, LIVER, S-9, AROCLOR 1254, Method: STANDARD PLATE): inactive; negative
- mutagenic call (Test System: AMES SALMONELLA TYPHIMURIUM, Strain/Indicator: TA97, Metabolic Activation: RAT, LIVER, S-9, DI(2-ETHYLHEXYL)PHTHALATE, Method: STANDARD PLATE): inactive; negative
- mutagenic call [1]: inactive; negative
- mutagenic call (Test System: AMES SALMONELLA TYPHIMURIUM, Strain/Indicator: TA98, Metabolic Activation: RAT, LIVER, S-9, AROCLOR 1254, Method: STANDARD PLATE): inactive; negative
- mutagenic call (Test System: AMES SALMONELLA TYPHIMURIUM, Strain/Indicator: TA98, Metabolic Activation: RAT, LIVER, S-9, DI(2-ETHYLHEXYL)PHTHALATE, Method: STANDARD PLATE): inactive; negative
- mutagenic call [2]: inactive; negative
- mutagenic call (Test System: AMES SALMONELLA TYPHIMURIUM, Strain/Indicator: TA100, Metabolic Activation: RAT, LIVER, S-9, AROCLOR 1254, Method: STANDARD PLATE): inactive; negative
- mutagenic call (Test System: AMES SALMONELLA TYPHIMURIUM, Strain/Indicator: TA100, Metabolic Activation: RAT, LIVER, S-9, DI(2-ETHYLHEXYL)PHTHALATE, Method: STANDARD PLATE): inactive; negative
- mutagenic call (Test System: AMES SALMONELLA TYPHIMURIUM, Strain/Indicator: TA102, Metabolic Activation: NONE, Method: STANDARD PLATE): inactive; negative
- mutagenic call (Test System: AMES SALMONELLA TYPHIMURIUM, Strain/Indicator: TA102, Metabolic Activation: RAT, LIVER, S-9, AROCLOR 1254, Method: STANDARD PLATE): inactive; negative
- mutagenic call (Test System: AMES SALMONELLA TYPHIMURIUM, Strain/Indicator: TA102, Metabolic Activation: RAT, LIVER, S-9, DI(2-ETHYLHEXYL)PHTHALATE, Method: STANDARD PLATE): inactive; negative
